Source: US20240033234A1, “THERAPEUTIC COMPOUNDS, FORMULATIONS, AND USE THEREOF” (Tvardi Therapeutics, Inc., priority 2022, published 2024)
Several values for one entry are separate records, joined by “and”; a condition that tells them apart may be missing. Equal values may be shown once.

Test: Accelerated and long term stability study of TTI-101 (Batch A, Batch B): HPLC assay, purity, impurities and water content after storage at 5° C., 25° C./60% RH, 30° C./65% RH or 40° C./75% RH
Assay type: physicochemical
Parameters: key to Impurity RRT 1.05: NQ: ≥0.02% and <0.05%; —: no peak
Method: Exemplary HPLC conditions: diluent was 0.1% trifluoroacetic acid (TFA) in acetonitrile, Mobile Phase A was 0.05% TFA in water, and Mobile Phase B was 0.05% TFA in acetonitrile, column (Agilent, Eclipse XDB-C18, 3.0×100 mm, particle size 1.8 μm), flow (0.425 mL/min), and detector (280 nm diode array).
Batch A was prepared analogously using Method 3 as described in Example 1. Batch B was prepared according to Method 5 as described in Example 1.
Samples of TTI-101 were stored at 5° C., 25° C./60% RH, 30° C./65% RH, or 40° C./75% RH. TTI-101 was stored in an LDPE bag enclosed with a Nylon cable tie and then transferred to another LDPE bag and enclosed with a Nylon cable tie. The enclosure was put into an HDPE bottle and closed with a polyethylene-lined polypropylene cap. The samples were stored under the above-identified conditions.
The samples were analyzed using HPLC with the exemplary conditions identified above. Relative retention time (RRT) for Compound 5 was about 0.83, Compound 4 was about 1.05-1.06, Compound 6 was about 1.15-1.17, and compound of formula (IV) was about 0.99.
• NA not applicable • NQ ≥0.02% and <0.05% • Avg average • Cmpd compound • — no peak • M month • RRT relative retention time

[1] = Storage 5° C., 4.5 M (25° C./60% RH) + 1.5 M (5° C.), Avg
[2] = Storage 5° C., 4.5 M (25° C./60% RH) + 1.5 M (5° C.), Prep P1-P2
[3] = Storage 5° C., 4.5 M (25° C./60% RH) + 1.5 M (5° C.), Prep P1-P2, listed as Batch B
[4] = Storage 5° C., 9 M, Prep P1-P2, listed as Batch B
[5] = Storage 25° C./60% RH, 0 M, Avg
[6] = Storage 25° C./60% RH, 0 M, Prep P1-P5
[7] = Storage 25° C./60% RH, 0 M, Prep P1-P5, listed as Batch B
[8] = Storage 25° C./60% RH, 1 M, Avg
[9] = Storage 25° C./60% RH, 1 M, Prep P1-P2
[10] = Storage 25° C./60% RH, 3 M, Avg
[11] = Storage 25° C./60% RH, 3 M, Prep P1-P2
[12] = Storage 25° C./60% RH, 3 M, Prep P1-P2, listed as Batch B
[13] = Storage 25° C./60% RH, 6 M, Avg
[14] = Storage 25° C./60% RH, 6 M, Prep P1-P2

COc1ccc(S(=O)(=O)Nc2cc(-c3c(O)ccc4ccccc34)c(O)c3ccccc23)cc1 [TTI-101]
Water Content (Storage 5° C., 0 M, Avg): 0.1% | Water Content (Storage 5° C., 0 M, Prep P1-P2): 0.1% | Impurities Total (Storage 5° C., 0 M, Prep P1-P5): 0.1 area % | Impurity RRT 0.86 (Storage 5° C., 0 M, Prep P1-P5): NQ (≥0.02% and <0.05%) | Impurity RRT 0.99 (Storage 5° C., 0 M, Prep P1-P5): NQ (≥0.02% and <0.05%) | Purity (Storage 5° C., 0 M, Prep P1-P5): 99.8% | Impurity RRT 1.16 (Cmp 6) (Storage 5° C., 0 M, Prep P1-P5, listed as Batch B): 0.08 area % and 0.07 area % | Impurities Total [1]: 0.3 area % | Impurity RRT 0.80 [1]: NQ (≥0.02% and <0.05%) | Impurity RRT 0.84 [1]: NQ (≥0.02% and <0.05%) | Impurity RRT 0.87 [1]: NQ (≥0.02% and <0.05%) | Impurity RRT 0.99 [1]: 0.05 area % | Impurity RRT 1.02 [1]: NQ (≥0.02% and <0.05%) | Impurity RRT 1.05 [1]: NQ (≥0.02% and <0.05%) | Impurity RRT 1.06 (Cmpd 4) [1]: NQ (≥0.02% and <0.05%) | Impurity RRT 1.17 (Cmp 6) [1]: 0.26 area % | Impurity RRT 1.39 [1]: NQ (≥0.02% and <0.05%) | Purity [1]: 99.6% | Water Content [1]: <0.04% | Impurity RRT 0.84 [2]: NQ (≥0.02% and <0.05%) | Impurity RRT 0.87 [2]: NQ (≥0.02% and <0.05%) | Impurity RRT 1.02 [2]: NQ (≥0.02% and <0.05%) | Impurity RRT 1.06 (Cmpd 4) [2]: NQ (≥0.02% and <0.05%) | Impurity RRT 1.39 [2]: NQ (≥0.02% and <0.05%) | Water Content [2]: <0.04% | Impurities Total [3]: 0.2 area % and 0.3 area % | Impurity RRT 1.17 (Cmp 6) [3]: 0.25 area % and 0.27 area % | Purity [3]: 99.6% and 99.5% | Assay (Storage 5° C., 9 M, Avg): 99.1% | Impurities Total (Storage 5° C., 9 M, Avg): 0.3 area % | Impurity RRT 0.84 (Storage 5° C., 9 M, Avg): NQ (≥0.02% and <0.05%) | Impurity RRT 0.87 (Storage 5° C., 9 M, Avg): NQ (≥0.02% and <0.05%) | Impurity RRT 0.99 (Storage 5° C., 9 M, Avg): 0.11 area % | Impurity RRT 1.02 (Storage 5° C., 9 M, Avg): NQ (≥0.02% and <0.05%) | Impurity RRT 1.16 (Cmp 6) (Storage 5° C., 9 M, Avg): 0.18 area % | Impurity RRT 1.39 (Storage 5° C., 9 M, Avg): NQ (≥0.02% and <0.05%) | Impurity RRT 1.47 (Storage 5° C., 9 M, Avg): NQ (≥0.02% and <0.05%) | Purity (Storage 5° C., 9 M, Avg): 99.6% | Water Content (Storage 5° C., 9 M, Avg): 0.05% | Impurities Total (Storage 5° C., 9 M, Prep P1-P2): 0.3 area % | Impurity RRT 0.87 (Storage 5° C., 9 M, Prep P1-P2): NQ (≥0.02% and <0.05%) | Impurity RRT 0.99 (Storage 5° C., 9 M, Prep P1-P2): 0.11 area % | Impurity RRT 1.02 (Storage 5° C., 9 M, Prep P1-P2): NQ (≥0.02% and <0.05%) | Impurity RRT 1.39 (Storage 5° C., 9 M, Prep P1-P2): NQ (≥0.02% and <0.05%) | Purity (Storage 5° C., 9 M, Prep P1-P2): 99.6% | Assay [4]: 98.7% and 99.4% | Impurity RRT 1.16 (Cmp 6) [4]: 0.18 area % and 0.17 area % | Water Content [4]: 0.1% and 0.05% | Assay [5]: 99.4% | Impurities Total [5]: 0.1 area % | Impurity RRT 0.61 [5]: 0.05 area % | Impurity RRT 0.86 [5]: NQ (≥0.02% and <0.05%) | Impurity RRT 0.88 [5]: NQ (≥0.02% and <0.05%) | Impurity RRT 0.99 [5]: NQ (≥0.02% and <0.05%) | Impurity RRT 1.16 (Cmp 6) [5]: 0.07 area % | Purity [5]: 99.8% | Water Content [5]: 0.1% | Water Content (Storage 25° C./60% RH, 0 M, Prep P1-P2): 0.1% | Impurities Total [6]: 0.1 area % | Impurity RRT 0.86 [6]: NQ (≥0.02% and <0.05%) | Impurity RRT 0.99 [6]: NQ (≥0.02% and <0.05%) | Purity [6]: 99.8% | Assay [7]: 99.0% and 100.5% and 99.3% and 99.5% and 98.8% | Impurity RRT 1.16 (Cmp 6) [7]: 0.08 area % and 0.07 area % | Impurities Total [8]: 0.5 area % | Impurity RRT 0.80 [8]: NQ (≥0.02% and <0.05%) | Impurity RRT 0.84 [8]: NQ (≥0.02% and <0.05%) | Impurity RRT 0.87 [8]: NQ (≥0.02% and <0.05%) | Impurity RRT 0.99 [8]: 0.10 area % | Impurity RRT 1.02 [8]: NQ (≥0.02% and <0.05%) | Impurity RRT 1.05 [8]: NQ (≥0.02% and <0.05%) | Impurity RRT 1.06 (Cmpd 4) [8]: NQ (≥0.02% and <0.05%) | Impurity RRT 1.17 (Cmp 6) [8]: 0.39 area % | Purity [8]: 99.4% | Water Content [8]: 0.1% | Impurities Total [9]: 0.5 area % | Impurity RRT 0.80 [9]: NQ (≥0.02% and <0.05%) | Impurity RRT 0.84 [9]: NQ (≥0.02% and <0.05%) | Impurity RRT 0.87 [9]: NQ (≥0.02% and <0.05%) | Impurity RRT 0.99 [9]: 0.10 area % | Impurity RRT 1.02 [9]: NQ (≥0.02% and <0.05%) | Impurity RRT 1.17 (Cmp 6) [9]: 0.39 area % | Purity [9]: 99.4% | Water Content [9]: 0.1% | Assay (Storage 25° C./60% RH, 1 M, Prep P1-P2, listed as Batch B): 99.0% and 99.2% | Assay [10]: 97.8% | Impurities Total [10]: 0.4 area % | Impurity RRT 0.48 [10]: NQ (≥0.02% and <0.05%) | Impurity RRT 0.80 [10]: NQ (≥0.02% and <0.05%) | Impurity RRT 0.84 [10]: NQ (≥0.02% and <0.05%) | Impurity RRT 0.87 [10]: NQ (≥0.02% and <0.05%) | Impurity RRT 0.99 [10]: 0.09 area % | Impurity RRT 1.02 [10]: NQ (≥0.02% and <0.05%) | Impurity RRT 1.05 [10]: — | Impurity RRT 1.06 (Cmpd 4) [10]: NQ (≥0.02% and <0.05%) | Impurity RRT 1.17 (Cmp 6) [10]: 0.33 area % | Purity [10]: 99.4% | Water Content [10]: 0.04% | Impurities Total [11]: 0.4 area % | Impurity RRT 0.80 [11]: NQ (≥0.02% and <0.05%) | Impurity RRT 0.84 [11]: NQ (≥0.02% and <0.05%) | Impurity RRT 0.87 [11]: NQ (≥0.02% and <0.05%) | Impurity RRT 0.99 [11]: 0.09 area % | Impurity RRT 1.02 [11]: NQ (≥0.02% and <0.05%) | Impurity RRT 1.05 [11]: — | Impurity RRT 1.17 (Cmp 6) [11]: 0.33 area % | Water Content [11]: 0.04% | Assay [12]: 96.8% and 98.8% | Purity [12]: 99.4% and 99.5% | Assay [13]: 98.7% | Impurities Total [13]: 0.3 area % | Impurity RRT 0.80 [13]: NQ (≥0.02% and <0.05%) | Impurity RRT 0.84 [13]: NQ (≥0.02% and <0.05%) | Impurity RRT 0.87 [13]: NQ (≥0.02% and <0.05%) | Impurity RRT 0.99 [13]: 0.05 area % | Impurity RRT 1.02 [13]: 0.05 area % | Impurity RRT 1.05 [13]: NQ (≥0.02% and <0.05%) | Impurity RRT 1.06 (Cmpd 4) [13]: NQ (≥0.02% and <0.05%) | Impurity RRT 1.17 (Cmp 6) [13]: 0.24 area % | Impurity RRT 1.39 [13]: NQ (≥0.02% and <0.05%) | Purity [13]: 99.5% | Water Content [13]: <0.04% | Impurities Total [14]: 0.3 area % | Impurity RRT 0.80 [14]: NQ (≥0.02% and <0.05%)
